Holding throughout (assay): normalised viability (% of control), CellTiter-Blue; higher = more viable cells (100 = DMSO, 0 = benzethonium chloride kill control)
What all share (conditions): incubation time: 72 h

The test system of one assay is CAL-51. The procedure: (§1)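 DSRT, CellTiter-Blue viability, 72 h incubation. Signal is normalised to DMSO and benzethonium chloride controls. Value is the normalised response at dose 1.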
The test system of the next assay is MDA-MB-468. The procedure:
as §1

Another assay has as its system Hs578T. The procedure:
as §1

A further assay relates to MDA-MB-231. The method, then:
as §1

For a further assay, the system named is MDA-MB-436. The method, then: as §1
The test system of another assay is MFM-223. The procedure: as §1
In the next assay the test system is CAL-148. The procedure:
as §1

In a further assay the test system is HCC1937. The method, then: as §1
In a further assay the test system is HDQ-P1. The method, then: as §1
For another assay, the system named is CAL-120. The method, then:
as §1

In the next assay the test system is BT-474. The procedure:
as §1

The next assay relates to HCC1143. The method, then: as §1
In the next assay the test system is HCC1599. The method, then: as §1
The next assay deals with SK-BR-3. The method, then:
as §1

Another assay relates to MDA-MB-453. The procedure: as §1
A further assay deals with CAL-85-1. The method, then:
as §1

A further assay deals with BT-549. The method, then: as §1
In another assay the test system is DU-4475. The method, then: as §1

Consider `COc1cc(Nc2ncc(F)c(Nc3ccc4c(n3)NC(=O)C(C)(C)O4)n2)cc(OC)c1OC` [R406] (1 nM), for which the normalised viability was 106% in the assay with CAL-51; 94.1% with MDA-MB-468; 116% in the assay on Hs578T; 95.7% in the assay with MDA-MB-231; 92.1% in the assay with MDA-MB-436; 93.3% in the assay with MFM-223. Besides, the normalised viability with CAL-148 amounted to 110%; with HCC1937 it was 91.6%; in the assay with HDQ-P1, 116%; in the assay on CAL-120 it was 83.5%; in the assay with BT-474, 117%; in the assay with HCC1143 it was 91.6%. For the same compound, the normalised viability in the assay on HCC1599 stood at 101%; in the assay on SK-BR-3, 102%; with MDA-MB-453, 106%; in the assay with CAL-85-1, 84.8%; in the assay with BT-549, 97%; in the assay on DU-4475, 112%.
For the compound `c1ccc(C2CN3CCSC3=N2)cc1` (centres undefined) [Tetramisole] (1 nM), the normalised viability in the assay on CAL-51 turned out to be 91.6%; in the assay on MDA-MB-468, 112%; in the assay on Hs578T it was 110%; in the assay on MDA-MB-231, 99.2%; with MDA-MB-436, 102%; in the assay with MFM-223, 98.5%. The normalised viability with CAL-148 stood at 117%; in the assay on HCC1937, 94.3%; with HDQ-P1, 126%; in the assay on CAL-120 it was 118%; in the assay with BT-474, 80.2%; in the assay on HCC1143, 107%. Also, the normalised viability in the assay on HCC1599 worked out at 95.3%; in the assay on SK-BR-3, 116%; in the assay with MDA-MB-453 it was 106%; in the assay on CAL-85-1, 96.5%; with BT-549, 97.8%; in the assay on DU-4475, 83%.
Take `CCCC(CCC)C(=O)O` [Valproic acid] (1 nM): the normalised viability with CAL-51 stood at 99.8%; with MDA-MB-468, 102%; in the assay on Hs578T it was 130%; in the assay on MDA-MB-231, 97.7%; with MDA-MB-436, 89.9%; with MFM-223, 104%. For the same compound, the normalised viability in the assay with CAL-148 was found to be 103%; in the assay on HCC1937, 115%; with HDQ-P1, 119%; in the assay on CAL-120, 105%; in the assay with BT-474, 99%; with HCC1143, 99.1%. Moreover, the normalised viability with HCC1599 turned out to be 83.6%; in the assay with SK-BR-3, 103%; with MDA-MB-453, 108%; with CAL-85-1 it was 95.3%; with BT-549 it was 98.6%; with DU-4475 it was 109%.

For the origin of these results see the supplement of paper PMC4862054.
